Measurements as given in the PolyMetriX glass transition set.
± gives the standard deviation of the reports.

In order of falling glass transition temperature:
1. *c1ccc(Oc2ccc(-c3cnc4cc(Oc5ccc6nc(*)cnc6c5)ccc4n3)cc2)cc1 (repeat unit)  382.00 °C
2. *c1ccc2c(c1)C(=O)N(c1cc(-c3ccc(O)c(N4C(=O)c5ccc(C(*)(C(F)(F)F)C(F)(F)F)cc5C4=O)c3)ccc1O)C2=O (repeat unit)  370.00 °C
3. *c1ccc(-c2cc(-c3ccc(OCCCC#N)cc3)cc(-c3ccc(N4C(=O)c5ccc(-c6ccc7c(c6)C(=O)N(*)C7=O)cc5C4=O)cc3)n2)cc1 (repeat unit)  360.00 °C
4. *c1ccc(-c2nc3cc(-c4ccc5nc(*)c(-c6ccc7ccccc7c6)nc5c4)ccc3nc2-c2ccc3ccccc3c2)cc1 (repeat unit)  333.00 °C
5. *c1ccc2c(c1)C(=O)N(c1cc(N3C(=O)c4ccc(C(*)(C(F)(F)F)C(F)(F)F)cc4C3=O)cc(C(F)(F)F)c1)C2=O (repeat unit)  290.50 ± 9.2 °C
6. *c1ccc2c(c1)C(=O)N(c1ccc(Oc3ccc(Oc4ccc(N5C(=O)c6ccc(C(*)(C(F)(F)F)C(F)(F)F)cc6C5=O)cc4)cc3)c(C(F)(F)F)c1)C2=O (repeat unit)  260.80 °C
7. *c1ccc(Oc2ccc(-c3ccc(Oc4ccc(N5C(=O)c6ccc(Oc7c(C)cc(C(C)(C)c8cc(C)c(Oc9ccc%10c(c9)C(=O)N(*)C%10=O)c(C)c8)cc7C)cc6C5=O)cc4)cc3C)c(C)c2)cc1 (repeat unit)  257.00 °C
8. *c1ccc(Oc2ccc(S(=O)(=O)c3ccc(Oc4ccc(C5(*)OC(=O)c6ccccc65)cc4)cc3)cc2)cc1 (repeat unit)  247.00 °C
9. *NNC(=O)c1ccccc1C(=O)NCCCCCCNC(=O)c1ccccc1C(*)=O (repeat unit)  224.50 °C
10. *c1ccc(Oc2ccc(C(=O)c3ccc(Oc4ccc(-c5nc(-c6ccccn6)nnc5*)cc4)cc3)cc2)cc1 (repeat unit)  223.00 °C
11. *c1ccc2c(c1)C(=O)N(c1ccc(Oc3ccc(N4C(=O)c5ccc(C(F)(F)C(F)(F)C(*)(F)F)cc5C4=O)cc3)cc1)C2=O (repeat unit)  222.00 °C
12. *Oc1ccc(C2(c3ccc(OC(=O)CCCC(*)=O)cc3)c3cc(OC)ccc3-c3ccc([N+](=O)[O-])cc32)cc1 (repeat unit)  197.00 °C
13. *c1ccc(Oc2ccc(C(=O)c3cccc(C(=O)c4ccc(Oc5ccc(N6C(=O)c7ccc(Oc8ccc(Sc9ccc(Oc%10ccc%11c(c%10)C(=O)N(*)C%11=O)cc9)cc8)cc7C6=O)cc5)cc4)c3)cc2)cc1 (repeat unit)  192.00 °C
14. *Oc1ccc(S(=O)(=O)c2ccc(Oc3ccc(/C=C4\CCCC/C(=C\c5ccc(*)cc5)C4=O)cc3)cc2)cc1 (repeat unit)  186.00 °C
15. *c1ccc(Oc2ccc(C3(c4ccc(Oc5ccc(-c6cccc(*)n6)cc5C(F)(F)F)cc4)c4ccccc4-c4ccccc43)cc2)c(C(F)(F)F)c1 (repeat unit)  182.50 °C
16. *CCCCCCCCCCc1ccc(-c2c(-c3ccccc3)cc(-c3cccc(-c4cc(-c5ccccc5)c(-c5ccc(*)cc5)c(-c5ccccc5)c4-c4ccccc4)c3)c(-c3ccccc3)c2-c2ccccc2)cc1 (repeat unit)  180.00 °C
17. *C(=O)NCCN(CCNC(=O)c1cccc(N2C(=O)c3ccc(*)cc3C2=O)c1)c1ccc(/C=C/c2ccc([N+](=O)[O-])cc2)cc1 (repeat unit)  178.00 °C
18. *C(=O)Oc1ccc(OC(=O)c2ccc3c(c2)C(=O)N(c2ccc(Cc4ccc(N5C(=O)c6ccc(*)cc6C5=O)cc4)cc2)C3=O)c(C(C)(C)C)c1 (repeat unit)  160.00 °C
19. *CCN(CCOC(=O)Nc1ccc(C)c(NC(=O)O*)c1)c1ccc(/N=N/c2ccc(-c3nc4ccccc4o3)cc2)cc1 (repeat unit)  152.00 °C
20. *CC(*)(C)C(=O)Oc1ccc(/C=C/c2ccccc2)cc1 (repeat unit)  143.00 °C
21. *OP(=O)(Oc1ccccc1)Oc1c(Br)cc(C(c2cc(Br)c(*)c(Br)c2)(C(F)(F)F)C(F)(F)F)cc1Br (repeat unit)  140.00 °C
22. *Oc1cccc2ccc(Oc3ccc(NC(=O)c4ccc(Oc5ccc(C(C)(C)c6cccc(C(C)(C)c7ccc(Oc8ccc(C(=O)Nc9ccc(*)cc9)cc8)cc7)c6)cc5)cc4)cc3)cc12 (repeat unit)  139.00 °C
23. *Oc1ccc(C2(c3ccc(OC(=O)CCCCCCCCCC(*)=O)cc3)c3ccccc3-c3ccccc32)cc1 (repeat unit)  136.00 °C
24. *c1ccc(OCCCCCCCCCCCOc2ccc(-c3ccc4nc(-c5cccc(-c6cc(-c7ccccc7)c7cc(*)ccc7n6)c5)cc(-c5ccccc5)c4c3)cc2)cc1 (repeat unit)  133.50 °C
25. *CC(*)(C)C(=O)OC1CC(C)CC(C)(C)C1 (repeat unit)  125.00 °C
26. *CCOC(=O)C1CCC(C(=O)OCCOc2ccc(C3(c4ccc(O*)cc4)c4ccccc4-c4ccccc43)cc2)CC1 (repeat unit)  120.1 °C
27. *Oc1ccc(Oc2c(F)c(F)c(-c3c(F)c(F)c(*)c(F)c3F)c(F)c2F)cc1S(=O)(=O)O (repeat unit)  120.00 °C
28. *C/C=C/COC(=O)C(Cc1ccccc1)NC(=O)/C=C/C(=O)NC(Cc1ccccc1)C(=O)O* (repeat unit)  109.00 °C
29. *C(F)(F)C1(*)OC(F)(F)C(F)(F)O1 (repeat unit)  108.00 °C
30. *CCc1cc(C)c(*)cc1C (repeat unit)  100.00 °C
31. *Oc1ccc(OC(=O)c2ccc(OCCCCCCCCCCCCOc3ccc(C(*)=O)cc3)cc2)cc1/C=C/c1ccncc1 (repeat unit)  94.30 °C
32. *Sc1ccc(*)cc1 (repeat unit) [Poly[thio(p-phenylene)] ]  87 ± 2.2 °C
33. *CC(*)(C)C(=O)OCCCOc1ccc2cc(C(=O)Oc3ccccc3)ccc2c1 (repeat unit)  84.00 °C
34. *CC(*)OC(=O)c1cccc([Si](C)(C)C)c1 (repeat unit)  80.00 °C
35. *CCCCCCN1C(=O)C(C)C(SCCOCCSC2C(=O)N(CCCCCCN3C(=O)CC(C)(SCCOCCSC4(C)CC(=O)N(*)C4=O)C3=O)C(=O)C2C)C1=O (repeat unit)  78.00 °C
36. *CC(*)OC(=O)OCC(Cl)(Cl)Cl (repeat unit)  74.00 °C
37. *CCCC(C)(C)CNC(=O)CCCCCC(=O)N* (repeat unit)  70.50 °C
38. *CC(*)(C)C(=O)OCSC (repeat unit)  60.00 °C
39. *CCCCCCCCOC(=O)c1ccc(-c2ccc(C(=O)O*)cc2)cc1 (repeat unit)  47.00 °C
40. *NC(CCC(=O)OCc1ccc(F)cc1)C(*)=O (repeat unit)  46.90 °C
41. *Oc1cc(OC(=O)c2ccc(OCCCCC)cc2)c(OC(=O)CCCC(*)=O)cc1OC(=O)c1ccc(OCCCCC)cc1 (repeat unit)  44.00 °C
42. *CC(*)C(=O)OCC(F)(F)C(F)(F)C(F)(F)F (repeat unit)  -30.00 °C
43. *C/C=C/COC(=O)CCCCCCCCC(=O)O* (repeat unit)  -41.00 °C
44. *N=P(*)(C)CCCC (repeat unit)  -51.00 °C
45. */C=C/CCCCCCCCCC* (repeat unit)  -53.00 °C
